# Measured values as given in PubChem BioAssay (NCI).
# “And” between values parts separate entries of the source, which are not always exact repeats. Identical values can stand only once.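 Five compound concentrations were applied to cells in 96-well plates for 48 hours; endpoints were derived by simple linear interpolation of the resulting dose-response curve. Abbreviation: GI50, concentration required for 50% inhibition of growth. TGI: concentration producing complete growth inhibition.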
# System: MDA-MB-468 breast
# Experiment: inhibition of tumour cell growth, NCI panel, 48 h
Compound,GI50,TGI
O=C1NC(=O)/C(=C/C=C/c2ccccc2)S1,10900 nM,56000 nM
CCSc1oc(-c2ccccc2)nc1[P+](c1ccccc1)(c1ccccc1)c1ccccc1,168 nM,676 nM
CC1(C)CCC[C@]23C(=O)O[C@](O)(C(=O)C4=C[C@@](C)(/C=C/CCCc5ccc6ccc7cccc8ccc5c6c78)CC[C@@]42O)[C@@H]13,196 nM,409 nM
CC1(C)N=C(N)N=C(N)N1c1cccc(C#N)c1,2310 nM,> 100000 nM
Nc1ccc(-c2nc3ccc4[nH]ncc4c3c3c2CCCC3)cc1F,126 nM,625 nM
COc1ccc(SC2c3cc(OC)c(OC)cc3Oc3nc(N)c(C#N)c(N)c32)cc1 (configuration not stated),320 nM,1530 nM
C[C@]12O[C@H](C[C@]1(O)CO)n1c3ccccc3c3c4c(c5c6ccccc6n2c5c31)CNC4=O,457 nM and 185 nM,2570 nM and 1650 nM
C/C(=N\NC(N)=O)C(CN1CCCCC1)C(c1ccccc1)c1c(O)c2ccccc2oc1=O (configuration not stated),> 100000 nM,> 100000 nM
CCCS(=O)(=O)Nc1ccc(F)c(C(=O)c2c[nH]c3ncc(-c4ccc(Cl)cc4)cc23)c1F,3550 nM and 5650 nM,20100 nM and > 10000 nM
CCOC(=O)c1sc(-c2ccc(OS(=O)(=O)c3cccs3)c(C=O)c2)nc1C,1310 nM,4950 nM
COc1ccc(C(=O)c2cc(OC)c(OC)c(OC)c2)cc1OC(C)=O,754 nM,
Nc1ncnc2c1c(C(F)(F)F)cn2[C@@H]1O[C@H](CO)[C@@H](O)[C@H]1O,242 nM,2140 nM
CCN1CCN(c2nc(NNC(=O)Cc3ccccc3)nc(N3CCN(C(c4ccccc4)c4ccccc4)CC3)n2)CC1,1950 nM,4520 nM
CCCCCCCCCCCCn1c(C)nc2ccccc21,601 nM,19400 nM
CN(C)CCCNc1nn2c(=O)c3ccccc3nc2c2ccccc12,6230 nM,20000 nM
COc1ccc(-c2ccc3c(NC(=O)C4CC4)n[nH]c3n2)cc1,> 25000 nM,> 25000 nM
CC(=O)OCC1OC(OC2C(COC(C)=O)OC(OCCC[S-])C(OC(C)=O)C2OC(C)=O)C(OC(C)=O)C(OC(C)=O)C1OC(C)=O.[Au+].c1ccc(CN2[CH-]N(Cc3ccccc3)C(c3ccccc3)=C2c2ccccc2)cc1 (configuration not stated),2810 nM,12400 nM

Compound,GI50,TGI
COc1ccc(-c2nn(-c3cccc(Cl)c3)cc2C=C(C#N)C#N)cc1,1670 nM,4960 nM
CN1/C(=C\C(I)C(I)C2=[N+](C)c3ccccc3C2(C)C)C(C)(C)c2ccccc21 (configuration not stated),72.3 nM,1240 nM
COc1ccc(-c2ccc(/C=C/C(=O)NO)cc2)cc1,463 nM,2620 nM
COc1ccc(/C(C)=C(\c2ccc(Cl)cc2)c2ccc(OCCN3CCCC3)cc2)cc1,4030 nM,8850 nM
Cn1nc(C(F)(F)F)c(-c2ccc(Cl)c(C(F)(F)F)c2)c1-c1ccc(OCc2ccc(Cl)cc2)cc1O,1340 nM,3650 nM
COc1ccc(/C=C/c2c(C(=O)/C=C/c3ccc(Cl)cc3)c(C)nc3ccccc23)cc1,1790 nM,3540 nM
O=C(/C=C/c1ccc(C(F)(F)F)cc1)c1ccc(Nc2nc(NCCO)nc(NCCO)n2)cc1,2020 nM,5070 nM
O=C1c2ccccc2C(=O)c2c1ccc(C(Br)Br)c2[N+](=O)[O-],541 nM,2280 nM
CC(=O)Oc1ccc(OC(C)=O)c2ccccc12,477 nM,2190 nM
CCN(CC)CCN1C(=O)c2c(c(C)c3c(oc4cc(O)ccc43)c2C)C1=O,1460 nM,3010 nM
S=c1nc(-c2ccccc2)oc(=NC2CCCCC2)n1C1CCCCC1,1970 nM,4830 nM
O=C(NCc1cccnc1)/C(=C\c1ccc(Br)cc1)S(=O)(=O)c1ccccc1,266 nM,933 nM
C#CCN1C(=O)/C(=c2\sc3n(c2=O)C2C(NN=3)N(CC)C(=O)N2CC)c2ccccc21 (configuration not stated),331 nM,3240 nM
COc1cc(C)c(C(=O)O[C@H]2[C@H](O[C@H]3[C@@H](O)COC(O[C@H]4C[C@H]5[C@@H]6CC=C7C[C@@H](O)CC[C@]7(C)[C@H]6CC[C@]5(C)[C@H]4[C@H](C)C(=O)CCC(C)C)[C@@H]3OC(C)=O)OC[C@@H](O)[C@@H]2O)c(C)c1 (some centres not stated),17.1 nM,1840 nM
N#Cc1c(NC(=O)c2ccccc2)sc2c1CCC(=O)C2,2190 nM,6940 nM
Cl.[Pt].[c-]1ccccc1-c1ccccn1.c1ccc(P(c2ccccc2)C([PH+](c2ccccc2)c2ccccc2)[PH+](c2ccccc2)c2ccccc2)cc1,571 nM,4210 nM
CC(C)C[C@H](NC(=O)[C@H](CCc1ccccc1)NC(=O)CN1CCOCC1)C(=O)N[C@@H](Cc1ccccc1)C(=O)N[C@@H](CC(C)C)C(=O)[C@@]1(C)CO1,< 13.5 nM,36.2 nM
